Data set [1] concerns S. pneumoniae (Sp). As to the kind of experiment: microbe, parasite or virus in culture. The data set is classed as cell-based. To be noted: Streptococcus pneumoniae.
The test system of data set [2] is H. influenzae (Hi). As to the kind of experiment: microbe, parasite or virus in culture. To be noted: Haemophilus influenzae. The data set is classed as cell-based.
The test system of data set [3] is group B streptococci. The data set is classed as cell-based.
Data set [4] concerns M. catarrhalis (Mc). As to the kind of experiment: microbe, parasite or virus in culture. To be noted: Moraxella catarrhalis. The data set is classed as cell-based.
Data set [5] has as its system S. pneumoniae.
The test system of data set [6] is beta1-integrin in human tendon cells.
Data set [7] relates to H. influenzae. As to the kind of experiment: microbe, parasite or virus in culture. The data set is classed as cell-based.
Data set [8] deals with S. pneumoniae. Kind of data set: microbe, parasite or virus in culture. Format: cell-based. To be noted: for susceptible (%): DIN breakpoints.
For data set [9], the system named is viridans group streptococci. As to the kind of experiment: organism not typed. The data set is classed as cell-based.
Data set [10] has as its system M. catarrhalis. Kind of data set: microbe, parasite or virus in culture. The data set is classed as cell-based. To be noted: Moraxella catarrhalis.
Data set [11] has as its system S. pneumoniae with reduced susceptibility to ciprofloxacin. As to the kind of experiment: microbe, parasite or virus in culture. Format: cell-based.
The subject of data set [12] is viridans Streptococci (S. mitis, S. oralis). Format: cell-based. To be noted: susceptible strains, salivary concentrations.
In data set [13] the test system is M. catarrhalis. Kind of data set: microbe, parasite or virus in culture. Format: cell-based.
Data set [14] is classed as in vivo, human. To be noted: after 6 months.
The test system of data set [15] is invasive GAS isolates. Format: cell-based, S. pyogenes.

In brackets after ≈: the same amount, converted by molar mass. Like-named read-outs stand apart in the source and are kept apart here.

On to `CC1(C)S[C@@H]2[C@H](NC(=O)[C@H](N)c3ccccc3)C(=O)N2[C@H]1C(=O)O` [ampicillin], for which the figures for the MIC90 in data set [1] and in [4] were 0.25 µg/mL (≈ 0.715 µM) and 4 µg/mL (≈ 11.4 µM), respectively. For the same molecule, the values for the MIC50 in data set [2] and in data set [4] were 0.5 µg/mL (≈ 1.43 µM) and 1 µg/mL (≈ 2.86 µM), respectively. The “susceptibility of all strains” value in data set [3] was “susceptible”.

For `CO/N=C(\C(=O)N[C@@H]1C(=O)N2C(C(=O)O)=C(COC(C)=O)CS[C@H]12)c1csc(N)n1` [cefotaxime], in [5] (2002 (n = 103)), the “%I” value is 3.8%, the “%R” value worked out at 1% and the “%S” value turned out to be 95.2%. Further, in data set [5] (2003 (n = 137)), the “%I” value was 4.4%, the “%R” value is listed as 0.6% and the “%S” value was 95%. In data set [5] (2004 (n = 110)), the “%I” value was found to be 3.8%, the “%R” value was 0% and the “%S” value is 96.2%.

In the case of `CO/N=C(\C(=O)N[C@@H]1C(=O)N2C(C(=O)O)=C(CSc3nc(=O)c(=O)[nH]n3C)CS[C@H]12)c1csc(N)n1` [ceftriaxone], the MIC50 in [1] came to 0.03 µg/mL (≈ 0.0541 µM); in data set [4], 0.5 µg/mL (≈ 0.902 µM). Moreover, the MIC90 in [1] was determined as 0.25 µg/mL (≈ 0.451 µM); in data set [2] it was 0.03 µg/mL (≈ 0.0541 µM); in data set [4], 1 µg/mL (≈ 1.8 µM).

On to `CO/N=C(\C(=O)N[C@@H]1C(=O)N2C(C(=O)O)=C(COC(N)=O)CS[C@H]12)c1ccco1` [cefuroxime], for which the MIC90 in data set [1] is 1 µg/mL (≈ 2.36 µM). The MIC50 in data set [2] and in data set [4] was 1 µg/mL (≈ 2.36 µM) throughout.

`O=C(O)c1cn(C2CC2)c2cc(N3CCNCC3)c(F)cc2c1=O` [ciprofloxacin]: the MIC50 in data set [1] was 1 µg/mL (≈ 3.02 µM); in data set [4] it was 0.06 µg/mL (≈ 0.181 µM). Further, the MIC90 in data set [1] was found to be 2 µg/mL (≈ 6.04 µM); in data set [4] it was 0.06 µg/mL (≈ 0.181 µM). The “amount of beta1-integrin vs untreated control” value in data set [6] is given as “significant decrease”.

For `CC[C@H]1OC(=O)[C@H](C)[C@@H](O[C@H]2C[C@@](C)(OC)[C@@H](O)[C@H](C)O2)[C@H](C)[C@@H](O[C@@H]2O[C@H](C)C[C@H](N(C)C)[C@H]2O)[C@](C)(OC)C[C@@H](C)C(=O)[C@H](C)[C@@H](O)[C@]1(C)O` [clarithromycin], the results for the “susceptible (%)” value in data set [7] and in data set [8] were 4.5% and 85.7%, respectively. Further, the “%I” value in [5] (2002 (n = 103)) is 0%; in data set [5] (2003 (n = 137)), 0%; in data set [5] (2004 (n = 110)) it was 1%. The “%S” value in [5] (2002 (n = 103)) stood at 58.8%; in data set [5] (2003 (n = 137)) it was 61.3%; in data set [5] (2004 (n = 110)) it was 64.5%. The figures for the “%R” value in data set [5] (2003 (n = 137)) and in data set [5] (2004 (n = 110)) were 38.7% and 34.5%, respectively.

Regarding `C[C@H]1c2cccc(O)c2C(=O)C2=C(O)[C@]3(O)C(=O)C(C(N)=O)=C(O)[C@@H](N(C)C)[C@@H]3[C@@H](O)[C@@H]21` [doxycycline], the MIC90 in [1] is 8 µg/mL (≈ 18 µM); in data set [4] it was 0.25 µg/mL (≈ 0.563 µM).

Regarding `CC[C@H]1OC(=O)[C@H](C)[C@@H](O[C@H]2C[C@@](C)(OC)[C@@H](O)[C@H](C)O2)[C@H](C)[C@@H](O[C@@H]2O[C@H](C)C[C@H](N(C)C)[C@H]2O)[C@](C)(O)C[C@@H](C)C(=O)[C@H](C)[C@@H](O)[C@]1(C)O` [erythromycin], in data set [5] (2002 (n = 103)), the “%I” value amounted to 0%, the “%R” value was 43.1% and the “%S” value worked out at 56.9%. Moreover, in [5] (2003 (n = 137)), the “%I” value was found to be 1.4%, the “%R” value turned out to be 38.8% and the “%S” value is listed as 59.8%. For the same molecule, in data set [5] (2004 (n = 110)), the “%I” value was determined as 0%, the “%R” value was 35.5% and the “%S” value is on record as 64.5%. Further, the MIC in [9] (S. sanguis mef(A)) is 4 µg/mL (≈ 5.45 µM).

With `CO/N=C1\CN(c2nc3c(cc2F)c(=O)c(C(=O)O)cn3C2CC2)CC1CN` (stereo not drawn) [gemifloxacin], the MIC50 in data set [10] was at most 0.12 µg/mL.

Turning to `C[C@H]1COc2c(N3CCN(C)CC3)c(F)cc3c(=O)c(C(=O)O)cn1c23` [levofloxacin], the MIC50 is at most 0.03 µg/mL in data set [10]; 1 µg/mL (≈ 2.77 µM) in data set [1]; 0.5 µg/mL (≈ 1.38 µM) in [11] (Streptococcus pneumoniae); 0.03 µg/mL (≈ 0.083 µM) in [2]; 0.03 µg/mL (≈ 0.083 µM) in [4]. For the same molecule, the MIC in data set [10] (read-out: MIC 10» (second value)) is 1 µg/mL (≈ 2.77 µM). Also, the MIC90 was determined as 1 µg/mL (≈ 2.77 µM) in data set [1]; 1 µg/mL (≈ 2.77 µM) in data set [11] (Streptococcus pneumoniae); 8 in data set [11] (ciprofloxacin MIC ≥8 mg/L); 0.03 µg/mL (≈ 0.083 µM) in data set [2]; 0.06 µg/mL (≈ 0.166 µM) in data set [4]; 1 µg/mL (≈ 2.77 µM) in data set [8] (n = 426). In addition, in data set [3], the “susceptibility of all strains” value is given as “susceptible”. Further, the time to eradication in data set [12] is 12 to 24 h. The “%I” value stood at 3% in data set [5] (2002 (n = 103)), 0.7% in [5] (2003 (n = 137)) and 0% in data set [5] (2004 (n = 110)). Also, the “%R” value in data set [5] (2002 (n = 103)) is given as 1%; in data set [5] (2003 (n = 137)) it was 1.5%; in data set [5] (2004 (n = 110)) it was 0%. The entries for the “%S” value in data set [5] (2002 (n = 103)), in data set [5] (2003 (n = 137)) and in [5] (2004 (n = 110)) were 96%, 97.8% and 100%, respectively. The “amount of beta1-integrin vs untreated control” value in data set [6] (3 mg/l, 1-4 days) is “no effect”.

In the case of `CC(=O)NC[C@H]1CN(c2ccc(N3CCOCC3)c(F)c2)C(=O)O1` [linezolid], in data set [5], the “%I” value stood at 0%, the “%R” value is 0% and the “%S” value came to 100%. Moreover, the MIC in data set [9] stood at 0.5 µg/mL (≈ 1.48 µM).

For the molecule `CC1(C)S[C@@H]2[C@H](NC(=O)Cc3ccccc3)C(=O)N2[C@H]1C(=O)O` [penicillin], the MIC50 was 0.03 µg/mL (≈ 0.0897 µM) in data set [1], 1 µg/mL (≈ 2.99 µM) in [2] and 64 µg/mL (≈ 191 µM) in [4]. The MIC90 came to 0.5 µg/mL (≈ 1.5 µM) in [1], 64 µg/mL (≈ 191 µM) in [2] and 64 µg/mL (≈ 191 µM) in [4]. Also, the figures for the “susceptible (%)” value in data set [7], in data set [13] and in data set [8] were 1.0%, 9.8% and 93.3%, respectively. In [3], the “susceptibility of all strains” value was “susceptible”. The results for the “%I” value in data set [5] (2002 (n = 103)), in data set [5] (2003 (n = 137)) and in data set [5] (2004 (n = 110)) were 31.1%, 55.5% and 30%, respectively. The entries for the “%R” value in [5] (2002 (n = 103)), in data set [5] (2003 (n = 137)) and in data set [5] (2004 (n = 110)) were 22.3%, 5% and 11%, respectively. Moreover, the “%S” value was determined as 46.6% in data set [5] (2002 (n = 103)), 39.5% in data set [5] (2003 (n = 137)) and 59% in data set [5] (2004 (n = 110)).

In the case of `CN(C)[C@@H]1C(O)=C(C(N)=O)C(=O)[C@@]2(O)C(O)=C3C(=O)c4c(O)cccc4[C@@](C)(O)[C@H]3C[C@@H]12` [tetracycline], in data set [14], the “mean per cent reduction, inflammatory lesions” value worked out at 56% and the “mean per cent reduction, non-inflammatory lesions” value is on record as 45%. Also, the resistant isolates in data set [15] was 50%.

Consider `CN[C@H](CC(C)C)C(=O)N[C@H]1C(=O)N[C@@H](CC(N)=O)C(=O)N[C@H]2C(=O)N[C@H]3C(=O)N[C@H](C(=O)N[C@H](C(=O)O)c4cc(O)cc(O)c4-c4cc3ccc4O)[C@H](O)c3ccc(c(Cl)c3)Oc3cc2cc(c3O[C@@H]2O[C@H](CO)[C@@H](O)[C@H](O)[C@H]2O[C@H]2C[C@](C)(N)[C@H](O)[C@H](C)O2)Oc2ccc(cc2Cl)[C@H]1O` [vancomycin], for which the “susceptibility of all strains” value in [3] was “susceptible”. Further, in data set [5], the “%I” value is listed as 0%, the “%R” value is given as 0% and the “%S” value is listed as 100%.

Turning to Quinupristin-Dalfopristin, the figures for the “%I” value in data set [5] (2002 (n = 103)), in data set [5] (2003 (n = 137)) and in [5] (2004 (n = 110)) were 5.8%, 0% and 1%, respectively. The “%R” value in data set [5] (2002 (n = 103)), in [5] (2003 (n = 137)) and in data set [5] (2004 (n = 110)) was 0% throughout. In addition, the “%S” value in data set [5] (2002 (n = 103)) amounted to 94.2%; in [5] (2003 (n = 137)), 100%; in data set [5] (2004 (n = 110)), 99%.

Take amoxicillin/clavulanate: the “susceptible (%)” value in [7] is 87.9%; in data set [13], 99.1%.

As for quinupristin/dalfopristin, in data set [3], the “susceptibility of all strains” value is on record as “susceptible”.

Consider teicoplanin, for which, in data set [3], the “susceptibility of all strains” value is given as “susceptible”.
